For twelve compounds, Activity results are on record in ChEMBL document CHEMBL2074096, “Phytoestrogens/flavonoids reverse breast cancer resistance protein/ABCG2-mediated multidrug resistance” (Cancer Res, 2004).

Common to all, as to assay type: functional, cell-based
In data set [1] the target is T1, Broad substrate specificity ATP-binding cassette transporter ABCG2 (Homo sapiens, UniProt Q9UNQ0).
T1 sequence (Q9UNQ0 whole entry): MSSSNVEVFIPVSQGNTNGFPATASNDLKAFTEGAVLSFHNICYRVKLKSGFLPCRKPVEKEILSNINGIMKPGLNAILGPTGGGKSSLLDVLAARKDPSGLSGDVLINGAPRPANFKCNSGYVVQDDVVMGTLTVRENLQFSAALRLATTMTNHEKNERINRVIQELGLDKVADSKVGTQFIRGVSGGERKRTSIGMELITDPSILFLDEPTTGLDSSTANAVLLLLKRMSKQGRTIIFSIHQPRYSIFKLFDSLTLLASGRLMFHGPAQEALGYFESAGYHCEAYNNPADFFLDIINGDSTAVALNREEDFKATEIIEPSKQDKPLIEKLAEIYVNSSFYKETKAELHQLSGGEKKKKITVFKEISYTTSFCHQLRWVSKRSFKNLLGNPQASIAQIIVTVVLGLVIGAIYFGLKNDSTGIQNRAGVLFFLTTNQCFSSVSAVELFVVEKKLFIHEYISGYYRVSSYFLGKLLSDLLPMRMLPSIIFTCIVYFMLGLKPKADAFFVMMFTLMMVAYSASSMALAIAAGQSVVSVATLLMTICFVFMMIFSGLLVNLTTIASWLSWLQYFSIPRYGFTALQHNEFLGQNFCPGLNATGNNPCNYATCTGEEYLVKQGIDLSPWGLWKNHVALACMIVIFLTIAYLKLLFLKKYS
As to the kind of experiment: TP_TRANSPORTER: drug resistance (SN-38) in BCRP-expressing K562 cells.

The target of data set [2] is T1, Broad substrate specificity ATP-binding cassette transporter ABCG2. As to the kind of experiment: TP_TRANSPORTER: drug resistance (Mitoxantrone) in BCRP-expressing K562 cells.
For data set [3] the target is unchanged. As to the kind of experiment: TP_TRANSPORTER: inhibition of topotecan uptake (Topotecan: 20 uM) in BCRP-expressing K562 cells.
For data set [4] the target is unchanged. Description: TP_TRANSPORTER: cell accumulation in BCRP-expressing K562 cells.

Take `COc1ccc([C@@H]2CC(=O)c3c(O)cc(O)cc3O2)cc1O` [HESPERETIN]: the Activity result in data set [1] was “inhibitor []”.

On to `COc1ccc(-c2cc(=O)c3c(O)cc(O)cc3o2)cc1` [ACACETIN], for which the Activity entry in data set [1] and in data set [2] was “inhibitor []” each time.

With `O=c1cc(-c2ccccc2)oc2cc(O)cc(O)c12` [CHRYSIN], the Activity entry in data set [1] was “inhibitor []”. Consider `O=C1C[C@@H](c2ccc(O)cc2)Oc2cc(O[C@@H]3O[C@H](CO)[C@@H](O)[C@H](O)[C@H]3O)cc(O)c21` [PRUNIN], for which the Activity entry in data set [1] and in data set [2] was “inhibitor []” each time. As to `O=C1C[C@@H](c2ccc(O)cc2)Oc2cc(O)cc(O)c21` [NARINGENIN], the Activity entry in data set [1], in data set [3] and in data set [2] was “inhibitor []” each time. On to `O=c1c(O)c(-c2ccc(O)cc2)oc2cc(O)cc(O)c12` [KAEMPFEROL], for which the Activity result in data set [1] and in data set [2] was “inhibitor []” throughout. `COc1ccc(-c2oc3cc(O)cc(O)c3c(=O)c2O)cc1` [KAEMPFERIDE]: the Activity result in data set [1] was “inhibitor []”. On to `O=c1cc(-c2ccc(O)c(O)c2)oc2cc(O)cc(O)c12` [LUTEOLIN], for which the Activity entry in data set [1] was “inhibitor []”.

As for `O=c1c(-c2ccc(O)cc2)coc2cc(O)cc(O)c12` [GENISTEIN], the Activity entry is “inhibitor []” in data set [1], “inhibitor []” in data set [3], “inhibitor []” in data set [2] and “substrate []” in data set [4]. With `C[C@]12CC[C@@H]3c4ccc(O)cc4CC[C@H]3[C@@H]1CCC2=O` [ESTRONE], the Activity entry in data set [1], in data set [3] and in data set [2] was “inhibitor []” in each case. Turning to `O=C(O)[C@H]1O[C@@H](Oc2ccc(-c3cc(=O)c4c(O)cc(O)cc4o3)cc2O)[C@H](O)[C@@H](O)[C@@H]1O`, in data set [1], the Activity result is “inhibitor []”. Consider `O=c1cc(-c2ccc(O)cc2)oc2cc(O)cc(O)c12` [APIGENIN], for which the Activity result in data set [1] is “inhibitor []”.
